Source: PubChem BioAssay AID1963835 (Molecular Pharmacology Branch, DTP, NCI, 2024)

System: 699152-130-R-J1-PDC complex spheroid viability
Test: Anticancer human tumor 699152-130-R-J1-PDC patient-derived pancreatic carcinoma cell line growth inhibition [POLQ]
Settings: for IC50: curve of first compound; for viability, T/C: stronger effect = lower value
Procedure: Multicellular complex tumor spheroid response to Polymerase (POL) inhibitors (novobiocin, ART-558, RP6685) in combination with a variety of drugs and investigational agents in selected tumor cell lines
The POL inhibitors (novobiocin, ART-558, and RP6685) were evaluated both individually and in combination with standard of care and investigational anticancer small molecules within a complex spheroid model of solid tumors. . Complex spheroids include a stromal component modeled by human endothelial cells (HUVEC) and fibroblasts modeled by human mesenchymal stem cells (MSCs). The concentration ranges selected for each drug and investigational agent were based upon clinically achievable concentrations if the clinical Cmax of the agent was known.
Compounds. The drugs and investigational agents: novobiocin (NSC847541), ART-558 (NSC835418), RP-6685 (NSC848927), peposertib (NSC802822), ceralasertib (NSC780249), elimusertib (NSC800525), camonsertib (NSC841442), AZD-1390 (NSC803789), olaparib (NSC753686), talazoparib (NSC767125), rucaparib (NSC756644), sotorasib (NSC818433), MRTX-1133 (NSC836407), SN-38 (NSC673596), topotecan (NSC609699), epotoside (NSC141540), doxorubicin (NSC123127), gemcitabine (NSC613327), 5-fluorouracil (NSC19893), paclitaxel (NSC125973), vemurafenib (NSC761431), MSA-2 (NSC828583), SN-011 (NSC837082), adavosertib (NSC754352), prexasertib (NSC758257), carboplatin (NSC241240) and oxaliplatin (NSC266046), were obtained from the National Cancer Institute (NCI) Developmental Therapeutics Program Chemical Repository (21). The FDA-approved anticancer drug set is available from the Developmental Therapeutics Program at https://dtp.cancer.gov/organization/dscb/obtaining/. […] The stock solutions were prepared in dimethyl sulfoxide (DMSO, Sigma-Aldrich, St. Louis, MO, cat. D2650), except for the platinum compounds which were prepared in saline (Quality Biological, Gaithersburg, MD, cat. 114-055-101), at 800-fold the tested concentration and stored at -70 degrees C prior to their use. All drugs and investigational agents were tested over a range starting from a high concentration at or near the clinical Cmax and decreasing in half-log increments. If the clinical Cmax for an agent had not been determined, the highest concentration tested was 10 microM, except for SN-38, which was tested at a high concentration of 1 microM.
Cell Culture. All cells were maintained in an incubator at 37 degrees C and 5% CO2 with 95% humidity. The PDC lines were cultured according to standard operating procedures established by the NCI PDMR (https://pdmr.cancer.gov). Table 3 of the manuscript, lists the cell lines along with the number of the three cell types plated to form the mct-spheroids and media for tumor cell growth. After thawing, all PDC lines, except 997537-175-T-J1-PDC and 415267-285-R-J2-PDC, were cultured in Matrigel-coated flasks prepared with a working solution of 1X Ham's F-12 nutrient mix, without supplementation (Thermo Fisher Scientific, cat. 11765054), 100 U/mL penicillin-streptomycin (Thermo Fisher Scientific, cat. 15140122), and 2.5% Matrigel (Corning Inc., Corning, NY, cat. 354248) for the first three passages. The two PDC lines 997537-175-T-J1-PDC and 415267-285-R-J2-PDC were cultured on uncoated flasks. The 857933-349-R-J2-PDC line was cultured in 6C/Colon 1B media containing advanced DMEM/F-12 (Thermo Fisher Scientific, cat. 12634028), 10 mM HEPES (Thermo Fisher Scientific, cat. 15630080), 1X GlutaMAX supplement (Thermo Fisher Scientific, cat. 35050061), 0.1 mg/mL primocin (InvivoGen, San Diego, CA, cat. ant-pm-2), 10% defined fetal bovine serum, heat inactivated (HyClone Laboratories Inc., Logan, UT, cat. SH30070.03HI), 50% L-WRN conditioned media (ATCC, cat. CRL-3276), 1.25 mM N-Acetyl-L-cysteine (Sigma-Aldrich, cat. A9165), 10 mM nicotinamide (Sigma-Aldrich, cat. N0636), 1X B-27 supplement (Thermo Fisher Scientific, cat. 17504044), 1X N-2 supplement (Thermo Fisher Scientific, cat. […]
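Note: spheroids exposed to agents for 7 days before viability reading.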
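Throughout, for viability, T/C: percent of DMSO vehicle control viability so 100% = vehicle and 0% = no viable signal.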

## CC(=O)O[C@H]1C(=O)[C@@]2(C)[C@H]([C@H](OC(=O)c3ccccc3)[C@]3(O)C[C@H](OC(=O)[C@H](O)[C@@H](NC(=O)c4ccccc4)c4ccccc4)C(C)=C1C3(C)C)[C@]1(OC(C)=O)CO[C@@H]1C[C@@H]2O + COC1C(OC(N)=O)C(O)C(Oc2ccc3c(O)c(NC(=O)c4ccc(O)c(CC=C(C)C)c4)c(=O)oc3c2C)OC1(C)C
Second compound 0.0316 µM
  IC50: > 3 µM
Second compound 0.1 µM
  IC50: > 3 µM
Second compound 0.316 µM
  IC50: > 3 µM
Second compound 1 µM
  IC50: > 3 µM
Second compound 3.16 µM
  IC50: > 3 µM
Second compound 10 µM
  IC50: > 3 µM
Second compound 0.0316 µM, first compound 0.00949 µM
  viability, T/C: 81.5%
Second compound 0.0316 µM, first compound 0.03 µM
  viability, T/C: 57%
Second compound 0.0316 µM, first compound 0.0949 µM
  viability, T/C: 57.1%
Second compound 0.0316 µM, first compound 0.3 µM
  viability, T/C: 60.7%
Second compound 0.0316 µM, first compound 0.949 µM
  viability, T/C: 70.2%
Second compound 0.0316 µM, first compound 3 µM
  viability, T/C: 63%
Second compound 0.1 µM, first compound 0.00949 µM
  viability, T/C: 87.9%
Second compound 0.1 µM, first compound 0.03 µM
  viability, T/C: 60.2%
Second compound 0.1 µM, first compound 0.0949 µM
  viability, T/C: 47.7%
Second compound 0.1 µM, first compound 0.3 µM
  viability, T/C: 62.5%
Second compound 0.1 µM, first compound 0.949 µM
  viability, T/C: 62.4%
Second compound 0.1 µM, first compound 3 µM
  viability, T/C: 74.5%
Second compound 0.316 µM, first compound 0.00949 µM
  viability, T/C: 90%
Second compound 0.316 µM, first compound 0.03 µM
  viability, T/C: 61.4%
Second compound 0.316 µM, first compound 0.0949 µM
  viability, T/C: 46.9%
Second compound 0.316 µM, first compound 0.3 µM
  viability, T/C: 53.2%
Second compound 0.316 µM, first compound 0.949 µM
  viability, T/C: 57.3%
Second compound 0.316 µM, first compound 3 µM
  viability, T/C: 58.1%
Second compound 1 µM, first compound 0.00949 µM
  viability, T/C: 77.2%
Second compound 1 µM, first compound 0.03 µM
  viability, T/C: 67.8%
Second compound 1 µM, first compound 0.0949 µM
  viability, T/C: 52.8%
Second compound 1 µM, first compound 0.3 µM
  viability, T/C: 57.7%
Second compound 1 µM, first compound 0.949 µM
  viability, T/C: 66%
Second compound 1 µM, first compound 3 µM
  viability, T/C: 68.7%
Second compound 3.16 µM, first compound 0.00949 µM
  viability, T/C: 91.9%
Second compound 3.16 µM, first compound 0.03 µM
  viability, T/C: 68.9%
Second compound 3.16 µM, first compound 0.0949 µM
  viability, T/C: 62.4%
Second compound 3.16 µM, first compound 0.3 µM
  viability, T/C: 55.5%
Second compound 3.16 µM, first compound 0.949 µM
  viability, T/C: 59.6%
Second compound 3.16 µM, first compound 3 µM
  viability, T/C: 73.1%
Second compound 10 µM, first compound 0.00949 µM
  viability, T/C: 84%
Second compound 10 µM, first compound 0.03 µM
  viability, T/C: 60.6%
Second compound 10 µM, first compound 0.0949 µM
  viability, T/C: 60.6%
Second compound 10 µM, first compound 0.3 µM
  viability, T/C: 61.7%
Second compound 10 µM, first compound 0.949 µM
  viability, T/C: 73.1%
Second compound 10 µM, first compound 3 µM
  viability, T/C: 67.9%
